Three compounds from US6579967B1, “Receptor-selective somatostatin analogs” (The Salk Institute for Biological Studies, priority 1999, dated 2003) can be followed below.

“Also recorded” adds a separate entry of the source. Read-outs that look alike come from different tables or passages of the source.

What all share (type): binding
One assay addresses T1, human SSTR1 (Homo sapiens, UniProt P30872).
T1 construct: expressed in transfected cells; host or cells: CHO-K1 cells and CCL39 cells
Kind of assay: Displacement of 125I-[Leu8,D-Trp22,Tyr25]-somatostatin-28 from cloned SSTR1 (receptor autoradiography on membrane pellets). On the procedure:
(§1) Generally, recombinant cells expressing the receptor are washed and homogenized to prepare a crude protein homogenate in a suitable buffer, as known in the art. In a typical assay, an amount of protein from the cell homogenate is placed into a small volume of an appropriate assay buffer at an appropriate pH. Candidate substances, such as potential SRIF agonists and antagonists, are added to the admixture in convenient concentrations, and the interaction between the candidate substance and the receptor polypeptide is monitored.
(§2) Receptor binding assays are performed on cloned SRIF receptors as generally set forth in Raynor et al. supra. Using such assays, one can generate KD values which are indicative of the concentration of a ligand necessary to occupy one-half (50%) of the binding sites on a selected amount of a receptor or the like, or alternatively, competitive assays can generate IC50 values which are indicative of the concentration of a competitive ligand necessary to displace a saturation concentration of a target ligand being measured from 50% of binding sites.
(§3) In vitro Bioassay: The various somatostatin analogs are tested in vitro for their ability to bind to isolated cloned receptors expressed on CHO-K1 cells and CCL39 cells. CHO-K1 cells are grown in Ham's F-12 medium, and CCL39 cells are grown in Dulbecco's modified Eagle's medium/Ham's F-12(1:1) mix, supplemented with 10% fetal bovine serum, 100 U/ml penicillin and 100 μg/ml streptomycin, in humidified air containing 5% CO2 at 37° C.
(§4) Cells are washed twice with and scraped into ice-cold 0.05 M Tris-HCl (pH 7.4), collected by centrifugation, and homogenized using a rotor/stator slash system in the same buffer. After centrifugation at 120 g for 5 min. at 4° C., the supernatant is collected and centrifuged again at 48,000 g for 30 min. at 4° C. The resulting pellet is resuspended in ice-cold Tris buffer, transferred into a microfuge tube, and centrifuged at 20,000 g for 15 min. at 4° C. After withdrawal of the supernatant, the membrane pellet is stored at −80° C.
(§5) Receptor autoradiography is performed on 20 μm thick cryostat sections of the membrane pellets, mounted on microscope slides, and then stored at −20° C. […] […] Unlabeled somatostatin-28 is run in parallel using the same increasing concentrations, as a control. IC50 values are calculated after quantification of the data using a computer-assisted image processing system as known in this art.

In assay [1] the target is T2, human SSTR3 (Homo sapiens, UniProt P32745).
T2 construct: expressed in transfected cells; host or cells: CHO-K1 cells and CCL39 cells
T2 sequence (P32745 whole entry): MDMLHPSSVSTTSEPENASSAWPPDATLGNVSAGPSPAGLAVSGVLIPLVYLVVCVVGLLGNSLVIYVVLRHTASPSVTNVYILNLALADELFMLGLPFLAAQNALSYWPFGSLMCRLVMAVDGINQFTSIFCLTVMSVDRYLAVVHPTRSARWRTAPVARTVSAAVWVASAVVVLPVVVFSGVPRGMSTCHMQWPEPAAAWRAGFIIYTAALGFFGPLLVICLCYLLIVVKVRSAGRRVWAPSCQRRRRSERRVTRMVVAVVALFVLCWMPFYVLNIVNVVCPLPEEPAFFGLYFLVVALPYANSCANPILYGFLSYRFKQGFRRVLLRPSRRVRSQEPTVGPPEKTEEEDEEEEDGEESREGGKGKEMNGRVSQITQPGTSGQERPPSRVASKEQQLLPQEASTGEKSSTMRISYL
The experiment in a line: Displacement of 125I-[Leu8,D-Trp22,Tyr25]-somatostatin-28 from cloned SSTR3 (receptor autoradiography on membrane pellets). As to conditions: for binding strength and selectivity for SSTR3, in words: qualitative statement. On the procedure:
as §1
as §2, with “sites. The peptide des-AA^1,2,4,5,12,13-[D-Agl^8(Me,2-naphthoyl)]SRIF inhibits the binding to SSTR3 of an iodinated SRIF-28 ligand that has strong affinity for all five receptors.” for “sites.”
as §3, §4
(§6) Receptor autoradiography is performed on 20 μm thick cryostat sections of the membrane pellets, mounted on microscope slides, and then stored at −20° C. For each of the tested compounds, complete displacement experiments are performed with the universal somatostatin ligand radioligand ^125I-[Leu^8,D-Trp^22,Tyr^25]-somatostatin-28 that binds with strong affinity to all five receptors. Increasing concentrations of the unlabeled peptide are used ranging from 0.1-1000 nM. Unlabeled somatostatin-28 is run in parallel using the same increasing concentrations, as a control. IC50 values are calculated after quantification of the data using a computer-assisted image processing system as known in this art.
(§7) The potencies of certain SRIF analogs to inhibit radioligand binding of ^125I-[Leu^8,D-Trp^22,[…]]SRIF-28 to the various cloned SRIF receptors are shown in the following table wherein the IC50 values are given in nanomolar concentration.

A further assay has as its target T3, human SSTR4 (Homo sapiens, UniProt P31391).
T3 construct: expressed in transfected cells; host or cells: CHO-K1 cells and CCL39 cells
Kind of assay: Displacement of 125I-[Leu8,D-Trp22,Tyr25]-somatostatin-28 from cloned SSTR4 (receptor autoradiography on membrane pellets). On the procedure:
as §1, §2, §3, §4, §5
Background: In a radioligand displacement assay an active substance lowers the binding of a labelled ligand.

In another assay the target is T4, human SSTR2 (Homo sapiens, UniProt P30874).
T4 construct: expressed in transfected cells; host or cells: CHO-K1 cells and CCL39 cells
T4 sequence (P30874 whole entry): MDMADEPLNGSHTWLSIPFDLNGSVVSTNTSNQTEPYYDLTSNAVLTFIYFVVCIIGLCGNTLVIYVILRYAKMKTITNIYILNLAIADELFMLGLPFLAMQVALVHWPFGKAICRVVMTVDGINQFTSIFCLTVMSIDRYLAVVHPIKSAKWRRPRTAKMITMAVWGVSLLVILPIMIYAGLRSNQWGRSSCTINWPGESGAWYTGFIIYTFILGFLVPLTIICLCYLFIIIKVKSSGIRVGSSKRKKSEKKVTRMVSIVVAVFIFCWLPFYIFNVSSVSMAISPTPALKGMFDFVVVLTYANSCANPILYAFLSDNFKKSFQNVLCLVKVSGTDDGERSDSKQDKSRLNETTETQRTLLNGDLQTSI
The experiment in a line: Displacement of 125I-[Leu8,D-Trp22,Tyr25]-somatostatin-28 from cloned SSTR2 (receptor autoradiography on membrane pellets). On the procedure:
as §1, §2, §3, §4, §5

The target in assay [2] is T5, human SSTR5 (Homo sapiens, UniProt P35346).
T5 construct: expressed in transfected cells; host or cells: CHO-K1 cells and CCL39 cells
T5 sequence (P35346 whole entry): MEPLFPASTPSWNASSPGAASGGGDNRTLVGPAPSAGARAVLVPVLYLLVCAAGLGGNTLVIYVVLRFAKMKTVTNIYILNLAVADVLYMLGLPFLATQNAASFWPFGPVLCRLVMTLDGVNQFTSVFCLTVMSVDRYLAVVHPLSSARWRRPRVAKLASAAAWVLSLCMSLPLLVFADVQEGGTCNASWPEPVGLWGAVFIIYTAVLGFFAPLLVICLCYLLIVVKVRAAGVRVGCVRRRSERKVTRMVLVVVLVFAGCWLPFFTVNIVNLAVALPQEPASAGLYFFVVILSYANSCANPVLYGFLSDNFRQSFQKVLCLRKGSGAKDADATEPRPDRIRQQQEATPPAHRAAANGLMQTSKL
The experiment in a line: Displacement of 125I-[Leu8,D-Trp22,Tyr25]-somatostatin-28 from cloned SSTR5 (receptor autoradiography on membrane pellets). On the procedure:
as §1
as §2, with “sites. The peptide des-AA^1,2,4,5,12,13-[D-Agl^8(Me,2-naphthoyl)]SRIF inhibits the binding to SSTR3 of an iodinated SRIF-28 ligand that has strong affinity for all five receptors.” for “sites.”
as §3, §4
as §6, with “Increasing concentrations of the unlabeled peptide are used ranging from 0.1-1000 nM.” left out
as §7

Assay [3] has as its target T5, human SSTR5. The description is as above. The settings on record: 125I-labelled Tyr2 analog tested as radioligand on cloned receptor.
The target of assay [4] is T2, human SSTR3. Kind of assay: Displacement of 125I-[Leu8,D-Trp22,Tyr25]-somatostatin-28 from cloned SSTR3 (receptor autoradiography on membrane pellets). As to conditions: 125I-labelled Tyr2 analog tested as radioligand on cloned receptor.
[5] abbreviates: inhibition of 125I-[Leu8,D-Trp22,Tyr24]SRIF-28 binding, cloned receptor, read-out: IC50 (nM) mSSTR1.
Setting [6] is: inhibition of 125I-[Leu8,D-Trp22,Tyr24]SRIF-28 binding, cloned receptor, read-out: IC50 (nM) mSSTR3.
Where [7] appears, read: inhibition of 125I-[Leu8,D-Trp22,Tyr24]SRIF-28 binding, cloned receptor, read-out: IC50 (nM) mSSTR4.
Setting [8] is: inhibition of 125I-[Leu8,D-Trp22,Tyr24]SRIF-28 binding, cloned receptor, read-out: IC50 (nM) mSSTR2.
Setting [9] is: inhibition of 125I-[Leu8,D-Trp22,Tyr24]SRIF-28 binding, cloned receptor, read-out: IC50 (nM) mSSTR5.

T3 sequence (P31391 whole entry): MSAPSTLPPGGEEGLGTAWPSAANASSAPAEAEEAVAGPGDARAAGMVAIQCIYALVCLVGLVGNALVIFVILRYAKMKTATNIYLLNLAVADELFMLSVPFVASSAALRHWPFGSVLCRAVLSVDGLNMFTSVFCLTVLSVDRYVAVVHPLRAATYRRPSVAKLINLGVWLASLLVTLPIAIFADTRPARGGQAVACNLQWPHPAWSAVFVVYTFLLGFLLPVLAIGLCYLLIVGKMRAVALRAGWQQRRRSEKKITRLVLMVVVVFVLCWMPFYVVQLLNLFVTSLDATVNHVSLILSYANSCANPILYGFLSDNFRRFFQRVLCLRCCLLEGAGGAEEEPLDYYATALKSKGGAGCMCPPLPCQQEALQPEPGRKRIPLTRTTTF
T1 sequence (P30872 whole entry): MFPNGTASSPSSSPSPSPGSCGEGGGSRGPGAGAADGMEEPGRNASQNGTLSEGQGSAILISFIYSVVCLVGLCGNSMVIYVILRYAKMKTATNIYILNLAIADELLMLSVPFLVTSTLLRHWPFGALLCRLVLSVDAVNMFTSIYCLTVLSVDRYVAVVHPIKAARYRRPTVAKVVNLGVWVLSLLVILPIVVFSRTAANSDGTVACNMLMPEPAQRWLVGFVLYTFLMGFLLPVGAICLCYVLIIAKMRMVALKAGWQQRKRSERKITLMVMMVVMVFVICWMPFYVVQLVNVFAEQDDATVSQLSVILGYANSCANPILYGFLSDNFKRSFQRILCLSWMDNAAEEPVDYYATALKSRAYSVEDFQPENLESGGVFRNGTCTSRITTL

Regarding `C[C@@H](O)[C@@H]1NC(=O)[C@H](CCCCN)NC(=O)[C@@H](N(C)C(=O)c2ccc3ccccc3c2)NC(=O)[C@H](Cc2ccc(O)cc2)NC(=O)[C@H](Cc2ccccc2)NC(=O)[C@H](NC(N)=O)CSSC[C@@H](C(=O)O)NC(=O)[C@H](Cc2ccccc2)NC1=O` [Peptide No. 2F, (cyclo 3-14)Cbm-D-Cys-Phe-Tyr-D-Agl(Me,2Np)-Lys-Thr-Phe-Cys-OH], the IC50 was over 10000 nM on human SSTR1 (setting [5]); 6.7 ± 2.6 nM at human SSTR3 [1] (setting [6]); over 10000 nM on human SSTR4 (setting [7]); over 10000 nM at human SSTR2 (setting [8]); over 10000 nM on human SSTR5 [2] (setting [9]). The “relative potency at SSTR3 by comparison to SRIF-28” value at human SSTR3 [1] (binding affinity relative to SRIF-28 (=1)) was “about 1.4”. Also, on human SSTR3 [1] (listed as Peptide 2F), the “binding strength and selectivity for SSTR3, in words” value is “bind strongly and selectively to SSTR3; also recorded: binding strength essentially equal to that of SRIF-28”.

As to `C[C@@H](O)[C@@H]1NC(=O)[C@H](CCCCN)NC(=O)[C@@H](Cc2ccc3ccccc3c2)NC(=O)[C@H](N(C)C(=O)c2ccccc2)NC(=O)[C@H](Cc2ccccc2)NC(=O)[C@@H](N)CSSC[C@@H](C(=O)O)NC(=O)[C@H](Cc2ccccc2)NC1=O` [Peptide No. 3, (cyclo 3-14)H-Cys-Phe-Agl(Me,Bz)-D-2Nal-Lys-Thr-Phe-Cys-OH], the IC50 at human SSTR1 (setting [5]) is over 10000 nM; on human SSTR1 (iodinated SRIF-28 ligand, cloned human receptor, read-out: concentration below which no binding to human SSTR1), over 1000 nM; on human SSTR3 [1] (setting [6]), 80 nM; at human SSTR3 [1] (iodinated SRIF-28 ligand, cloned human receptor, read-out: IC50 at cloned human SSTR3), about 80 nM; at human SSTR4 (setting [7]), over 1000 nM; on human SSTR4 (iodinated SRIF-28 ligand, cloned human receptor, read-out: concentration below which no binding to human SSTR4), over 1000 nM. For the same compound, the IC50 at human SSTR2 (setting [8]) was over 1000 nM; on human SSTR2 (iodinated SRIF-28 ligand, cloned human receptor, read-out: concentration below which no binding to human SSTR2), over 1000 nM; on human SSTR5 [2] (setting [9]) it was over 1000 nM; at human SSTR5 [2] (iodinated SRIF-28 ligand, cloned human receptor, read-out: concentration below which no binding to human SSTR5), over 1000 nM. In addition, the “binding strength and selectivity for SSTR3, in words” value on human SSTR3 [1] was “bind selectively to SSTR3; also recorded: selectively binds SSTR3”.

Consider “(cyclo)H-Tyr-Cys-Phe-Phe-D-Agl(Me,2Np)-Lys-Thr-Phe-Cys-OH [Peptide No. 4]”, for which the “binding of the radioiodinated analog to SSTR5” value at human SSTR5 [3] was “No specific binding”. The “binding of the radioiodinated analog to SSTR3” value on human SSTR3 [4] was “continues to bind strongly to SSTR3; also recorded: effectively binds to SSTR3 to about the same extent as Peptide No. 2B”.
